Assay results published in patent US20050100983A1, “Cell-free methods for identifying compounds that affect toll-like receptor 9 (TLR9) signaling” (Coley Pharmaceutical GmbH, priority 2003, published 2005).
pEC50, pKd: −log10 of the molar value.

Key:
murine TLR9 = details: read-out: concentration for half-maximal activation of murine TLR9; cited from earlier work
[1] = target: T1, mTLR9ect (extracellular domain of murine TLR9 fused to human IgG1-Fc) (Mus musculus, UniProt Q9EQU3); assay: SPR biosensor analysis of mTLR9ect binding to immobilized CpG-DNA
T1 construct: mTLR9ect (aa 1-816); made in house
T1 sequence (Q9EQU3 26-816): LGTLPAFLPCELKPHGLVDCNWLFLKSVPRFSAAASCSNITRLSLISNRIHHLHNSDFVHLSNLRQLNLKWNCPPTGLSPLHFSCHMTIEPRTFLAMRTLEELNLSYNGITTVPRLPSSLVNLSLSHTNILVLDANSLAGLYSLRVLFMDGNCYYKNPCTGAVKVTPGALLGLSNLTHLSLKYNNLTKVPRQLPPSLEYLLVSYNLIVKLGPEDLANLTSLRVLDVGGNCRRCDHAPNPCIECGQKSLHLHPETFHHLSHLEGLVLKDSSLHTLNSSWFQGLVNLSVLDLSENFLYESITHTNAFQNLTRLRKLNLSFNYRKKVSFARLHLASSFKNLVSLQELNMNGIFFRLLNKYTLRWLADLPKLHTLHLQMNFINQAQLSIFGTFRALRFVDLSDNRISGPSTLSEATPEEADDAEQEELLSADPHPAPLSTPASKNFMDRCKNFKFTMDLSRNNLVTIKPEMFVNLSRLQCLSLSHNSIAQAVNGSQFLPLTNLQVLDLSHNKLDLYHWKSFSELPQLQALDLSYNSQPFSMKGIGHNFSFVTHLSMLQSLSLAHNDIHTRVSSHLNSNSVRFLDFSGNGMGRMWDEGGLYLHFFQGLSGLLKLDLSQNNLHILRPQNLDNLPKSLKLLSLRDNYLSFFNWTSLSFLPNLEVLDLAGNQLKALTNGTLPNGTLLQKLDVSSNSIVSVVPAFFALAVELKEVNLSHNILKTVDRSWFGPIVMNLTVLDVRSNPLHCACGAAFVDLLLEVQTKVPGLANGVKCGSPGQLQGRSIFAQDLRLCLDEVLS
From the text: Protein. Recombinant fusion proteins consisting of the extracellular domain of Toll-like receptors mTLR9ect (aa 1-816), mTLR9ect-mut (see below) (aa 1-816), hTLR9ect (aa 1-815) and mTLR2ect (aa 1-587) fused to human IgG1-Fc were constructed by amplifying the corresponding extracellular domain and ligating the fragment in frame into a pcDNA3.1(−) (Invitrogen, Netherlands) vector containing the coding sequence for human IgG1-Fc. Fusion proteins were stably expressed in HEK 293 cells and purified from cell lysates by protein A affinity chromatography.
SPR biosensor analysis. Real-time binding of TLR9 or TLR2 was measured by surface plasmon resonance biosensor technology using the BiaCore X system (Uppsala, Sweden). For analysis of TLR9 and TLR2 interaction, biotinylated CpG-DNA and non-CpG-DNA, or biotinylated Pam3CysK4 and PHCK4, respectively, were loaded in running buffer (50 mM MES, 150 mM NaCl, 1 mM MgCl2 at pH 6.5) on SA chips precoated with streptavidin (Biacore AB, Uppsala, Sweden). Non-CpG-DNA or PHCK4 (Wiesmuller K H et al. (1989) Vaccine 7:29-33) served as reference for CpG-DNA and Pam3CysK4 interaction (structure or sequence in Table 1). […] TLR proteins were introduced at 200 nM or as indicated in 40 μl running buffer at a flow rate of 10 μl/min. Binding was measured at 25° C. for 750 s (delay time 300 s). […] Sensorgrams were recorded and kinetic data were calculated by the BiaCore Evaluation program (Biacore, version 3.0.1). Regeneration of the chip was performed by injection of 10 μl 50 mM NaOH, 1 M NaCl and extensive re-equilibration.
For detailed analysis of TLR9-CpG-DNA interaction, surface plasmon resonance (SPR) biosensor based technology was used with CpG- and non-CpG-DNA immobilized onto separate flow cells of a streptavidin-coated chip. Under these settings non-CpG-DNA served as reference for specific binding (see Methods). Binding of mTLR9ect to DNA was CpG-sequence-specific and increased in a dose-dependent manner. […] Using the 1:1 binding model of the BioEvaluation software as fitting algorithm and on the basis of four different mTLR9ect concentrations ranging from 50 to 300 nM, a dissociation constant (Kd) of 200 nM was obtained with low chi-squared residuals (4,76). […] Weber AN et al. (2003) Nat. Immunol. 4:794-800. Furthermore the concentration of CpG-DNA 1668 (SEQ ID NO:1) for half-maximal activation of murine TLR9 has been recently calculated as 70 nM which correlates well with the KD obtained here. Bauer S et al. (2001) Proc. Natl. Acad. Sci. U.S.A. 98:9237-9242. […] This difference in affinity correlates with the observed species-specific variance in CpG-motif recognition, as well as activation potential. Bauer S et al. (2001) Proc. Natl. Acad. Sci. U.S.A. 98:9237-9242.

mTLR9ect = target: T2, mTLR9ect (Mus musculus, UniProt Q9EQU3); assay: UV-crosslinking of mTLR9ect with 32P-labeled DNA and SDS-PAGE; assay type: binding, murine; details: SDS-PAGE, complex at 150 kDa
T2 construct: mTLR9ect (aa 1-816); made in house
T2 sequence (Q9EQU3 26-816): T1 sequence (Q9EQU3 26-816)
From the text: FIG. 1B is an image of an SDS-PAGE gel depicting purified proteins from FIG. 1A UV-crosslinked with ^32P-labeled CpG- or non-CpG-DNA, separated by SDS-PAGE, and autoradiographed. TLR9 and free DNA are highlighted.
Bauer S et al. (2001) Proc. Natl. Acad. Sci. U.S.A. 98:9237-9242. To assess binding of TLR9 to CpG-DNA, a recombinant fusion protein consisting of the extracellular domain of murine TLR9 and human IgG 1-Fc (mTLR9ect) was constructed. The extracellular domain of murine TLR2 also fused to IgG1-Fc (mTLR2ect) served as control. Proteins were expressed in HEK 293 cells and purified via protein A affinity chromatography (FIG. 1A). Under denaturing and non-reducing conditions mTLR9ect and mTLR2ect are approximately 10% in a monomeric and 90% in a dimeric form. Dimerization of the proteins is probably mediated by the IgG 1-Fc fusion partner which forms disulfide bonds (FIG. 1A). Initially, binding of mTLR9ect to radiolabeled DNA was determined by UV-crosslinking and subsequent SDS-PAGE.

5′-TCCATGACGTTCCTGATGCT-3′ (chemistry not given here) [CpG-DNA 1668, synthetic CpG oligodeoxynucleotide, TLR9 ligand]
pEC50 (murine TLR9): 7.15 | pKd ([1]; 1:1 binding model, four mTLR9ect concentrations 50 to 300 nM, running buffer pH 6.5, 25° C., read-out: dissociation constant (Kd)): 6.70 | Binding of mTLR9ect to DNA ([1]; SPR, non-CpG-DNA as reference, pH 6.5): CpG-sequence-specific | release of bound mTLR9ect by free injected DNA ([1]; competition, free DNA added in dissociation phase): dose dependently released bound mTLR9ect | TLR9 binding to CpG-DNA ([1]; pH 6.5 or 5.5): strong | dissociation of TLR9 from CpG-DNA ([1]; pH 6.5 or 5.5): weak dissociation | effect of pre-incubation of mTLR9ect with DNA on binding to chip-immobilized CpG-DNA ([1]; pre-incubation prior to SPR analysis): abolished binding | binding of mTLR9ect to radiolabeled DNA (mTLR9ect): bound
